Results taken from PubChem BioAssay AID256 (DTP/NCI, 2004).
“And” between values parts separate entries of the source, which are not always exact repeats. Equal values may be shown once. Inconclusive results and toxic doses are left out. How the source made its calls: active means survival T/C of 150% or more; inactive means T/C below 125% in these data.

Tested on: CD2F1 mice, L1210 leukemia ip, survival T/C
Assay: NCI In Vivo Anticancer Drug Screen. Data for tumor model L1210 Leukemia (intraperitoneal) in CD2F1 (CDF1) mice
Conditions: higher = longer survival
Summary of the method: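 Each value reflects a quotient of treated over vehicle control outcomes in mice with a transplanted tumor.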

[1] = endpoint: mean survival time, dose: 50.0 mg/kg/injection, schedule: Q01DX009 (ip), vehicle: saline with Tween-80
[2] = endpoint: mean survival time, dose: 100.0 mg/kg/injection, schedule: Q01DX009 (ip), vehicle: saline with Tween-80
[3] = endpoint: mean survival time, dose: 100.0 mg/kg/injection, schedule: Q04DX003 (ip), vehicle: saline with Tween-80
[4] = endpoint: mean survival time, dose: 200.0 mg/kg/injection, schedule: Q01DX009 (ip), vehicle: saline with Tween-80
[5] = endpoint: mean survival time, dose: 200.0 mg/kg/injection, schedule: Q04DX003 (ip), vehicle: saline with Tween-80
[6] = endpoint: mean survival time, dose: 400.0 mg/kg/injection, schedule: Q04DX003 (ip), vehicle: saline with Tween-80
[7] = endpoint: mean survival time, dose: 100.0 mg/kg/injection, schedule: Q01DX009 (ip), vehicle: Klucel (hydroxypropylcellulose) (HPC)
[8] = endpoint: mean survival time, dose: 200.0 mg/kg/injection, schedule: Q01DX009 (ip), vehicle: Klucel (hydroxypropylcellulose) (HPC)

Measured: T/C

Clc1ccc2nnnn2n1
inactive: endpoint: mean survival time, dose: 12.5 mg/kg/injection, schedule: Q01DX009 (ip), vehicle: saline with Tween-80 105 % of control | endpoint: mean survival time, dose: 25.0 mg/kg/injection, schedule: Q01DX009 (ip), vehicle: saline with Tween-80 113 % of control and 114 % of control | endpoint: mean survival time, dose: 25.0 mg/kg/injection, schedule: Q04DX003 (ip), vehicle: saline with Tween-80 96 % of control | endpoint: mean survival time, dose: 31.75 mg/kg/injection, schedule: Q04DX003 (ip), vehicle: saline with Tween-80 106 % of control | [1] 100 % of control and 110 % of control | endpoint: mean survival time, dose: 50.0 mg/kg/injection, schedule: Q04DX003 (ip), vehicle: saline with Tween-80 100 % of control | endpoint: mean survival time, dose: 62.5 mg/kg/injection, schedule: Q04DX003 (ip), vehicle: saline with Tween-80 103 % of control | [2] 114 % of control and 122 % of control | [3] 107 % of control | endpoint: mean survival time, dose: 125.0 mg/kg/injection, schedule: Q04DX003 (ip), vehicle: saline with Tween-80 103 % of control | [4] 100 % of control | [5] 105 % of control | endpoint: mean survival time, dose: 250.0 mg/kg/injection, schedule: Q04DX003 (ip), vehicle: saline with Tween-80 105 % of control | [6] 108 % of control | endpoint: median survival time, dose: 25.0 mg/kg/injection, schedule: Q01DX009 (ip), vehicle: saline with Tween-80 102 % of control and 103 % of control | endpoint: median survival time, dose: 25.0 mg/kg/injection, schedule: Q04DX003 (ip), vehicle: saline with Tween-80 114 % of control | endpoint: median survival time, dose: 50.0 mg/kg/injection, schedule: Q01DX009 (ip), vehicle: saline with Tween-80 113 % of control and 108 % of control | endpoint: median survival time, dose: 50.0 mg/kg/injection, schedule: Q04DX003 (ip), vehicle: saline with Tween-80 112 % of control | endpoint: median survival time, dose: 100.0 mg/kg/injection, schedule: Q01DX009 (ip), vehicle: saline with Tween-80 118 % of control | endpoint: median survival time, dose: 100.0 mg/kg/injection, schedule: Q04DX003 (ip), vehicle: saline with Tween-80 113 % of control | endpoint: median survival time, dose: 200.0 mg/kg/injection, schedule: Q01DX009 (ip), vehicle: saline with Tween-80 117 % of control and 108 % of control | endpoint: median survival time, dose: 200.0 mg/kg/injection, schedule: Q04DX003 (ip), vehicle: saline with Tween-80 110 % of control | endpoint: median survival time, dose: 400.0 mg/kg/injection, schedule: Q04DX003 (ip), vehicle: saline with Tween-80 118 % of control

C=C(C)C12CC(COC(=O)c3ccccc3)C34OC5(OC1C3C1OC1(CO)C(O)C1(O)C(OC(=O)c3ccccc3)C(C)C(C(C)CCCCCCC5O)C14)O2 (stereo not given)
inactive: endpoint: mean survival time, dose: 1.5 micrograms/kg/injection, schedule: Q01DX009 (ip), vehicle: saline 103 % of control | endpoint: mean survival time, dose: 3.1 micrograms/kg/injection, schedule: Q01DX009 (ip), vehicle: saline 98 % of control | endpoint: mean survival time, dose: 6.2 micrograms/kg/injection, schedule: Q01DX009 (ip), vehicle: saline 97 % of control | endpoint: mean survival time, dose: 12.5 micrograms/kg/injection, schedule: Q01DX009 (ip), vehicle: saline 98 % of control

Cc1ccc(Nc2ccc(Nc3ccc(C)cc3)c3c2C(=O)c2ccccc2C3=O)cc1
inactive: [2] 86 % of control | [4] 89 % of control | endpoint: mean survival time, dose: 400.0 mg/kg/injection, schedule: Q01DX009 (ip), vehicle: saline with Tween-80 89 % of control

CN1c2ccccc2N(C)c2ccccc21
inactive: [2] 94 % of control | [3] 101 % of control | [5] 98 % of control | [6] 96 % of control

C=CCN(CC=C)C1=CC(=O)C(=O)c2ccccc21
inactive: endpoint: mean survival time, dose: 75.0 mg/kg/injection, schedule: Q01DX001 (ip), vehicle: saline 91 % of control | endpoint: mean survival time, dose: 150.0 mg/kg/injection, schedule: Q01DX001 (ip), vehicle: saline 100 % of control | endpoint: mean survival time, dose: 300.0 mg/kg/injection, schedule: Q01DX001 (ip), vehicle: saline 89 % of control

O=C(N/N=C/c1ccccc1)c1ccc(Cl)cc1
inactive: [7] 94 % of control | [8] 97 % of control | endpoint: mean survival time, dose: 400.0 mg/kg/injection, schedule: Q01DX009 (ip), vehicle: Klucel (hydroxypropylcellulose) (HPC) 101 % of control

CCCCCCCCCCCCOCCC(=O)O
inactive: endpoint: mean survival time, dose: 75.0 mg/kg/injection, schedule: Q04DX003 (ip), vehicle: saline 97 % of control | endpoint: mean survival time, dose: 150.0 mg/kg/injection, schedule: Q04DX003 (ip), vehicle: saline 103 % of control | endpoint: mean survival time, dose: 300.0 mg/kg/injection, schedule: Q04DX003 (ip), vehicle: saline 95 % of control

CC1=C(O)C(=O)OC1c1ccc(C)cc1 (stereo not given)
inactive: endpoint: mean survival time, dose: 12.5 mg/kg/injection, schedule: Q01DX009 (ip), vehicle: other 101 % of control | endpoint: mean survival time, dose: 25.0 mg/kg/injection, schedule: Q01DX009 (ip), vehicle: other 98 % of control | endpoint: mean survival time, dose: 50.0 mg/kg/injection, schedule: Q01DX009 (ip), vehicle: other 95 % of control | endpoint: mean survival time, dose: 100.0 mg/kg/injection, schedule: Q01DX009 (ip), vehicle: other 98 % of control | endpoint: mean survival time, dose: 200.0 mg/kg/injection, schedule: Q01DX009 (ip), vehicle: other 104 % of control

c1coc(CNc2ncnc3c2ncn3CCCCCCn2cnc3c(NCc4ccco4)ncnc32)c1
inactive: endpoint: mean survival time, dose: 1.0 mg/kg/injection, schedule: Q01DX005 (ip), vehicle: other 95 % of control | endpoint: mean survival time, dose: 2.0 mg/kg/injection, schedule: Q01DX005 (ip), vehicle: other 92 % of control | endpoint: mean survival time, dose: 4.0 mg/kg/injection, schedule: Q01DX005 (ip), vehicle: other 95 % of control | endpoint: mean survival time, dose: 16.0 mg/kg/injection, schedule: Q01DX005 (ip), vehicle: other 95 % of control

OCCN1CCNC1=S
inactive: endpoint: mean survival time, dose: 100.0 mg/kg/injection, schedule: Q01DX009 (ip), vehicle: saline 97 % of control | endpoint: mean survival time, dose: 100.0 mg/kg/injection, schedule: Q04DX003 (ip), vehicle: saline 97 % of control | endpoint: mean survival time, dose: 200.0 mg/kg/injection, schedule: Q01DX009 (ip), vehicle: saline 97 % of control | endpoint: mean survival time, dose: 200.0 mg/kg/injection, schedule: Q04DX003 (ip), vehicle: saline 92 % of control | endpoint: mean survival time, dose: 400.0 mg/kg/injection, schedule: Q01DX009 (ip), vehicle: saline 102 % of control | endpoint: mean survival time, dose: 400.0 mg/kg/injection, schedule: Q04DX003 (ip), vehicle: saline 98 % of control

NC(=O)c1n[nH]c(C2CC(O)C(CO)O2)n1 (stereo not given)
inactive: endpoint: mean survival time, dose: 12.5 mg/kg/injection, schedule: Q01DX005 (ip), vehicle: water 96 % of control | endpoint: mean survival time, dose: 25.0 mg/kg/injection, schedule: Q01DX005 (ip), vehicle: water 91 % of control | endpoint: mean survival time, dose: 50.0 mg/kg/injection, schedule: Q01DX005 (ip), vehicle: water 92 % of control | endpoint: mean survival time, dose: 100.0 mg/kg/injection, schedule: Q01DX005 (ip), vehicle: water 96 % of control | endpoint: mean survival time, dose: 200.0 mg/kg/injection, schedule: Q01DX005 (ip), vehicle: water 94 % of control

Cc1ccc(SSc2ccc(C)cc2)cc1
inactive: endpoint: mean survival time, dose: 100.0 mg/kg/injection, schedule: Q01DX001 (ip), vehicle: saline 100 % of control | endpoint: mean survival time, dose: 200.0 mg/kg/injection, schedule: Q01DX001 (ip), vehicle: saline 100 % of control | endpoint: mean survival time, dose: 400.0 mg/kg/injection, schedule: Q01DX001 (ip), vehicle: saline 91 % of control

CCC(=O)Nc1cccc(OC(=O)NC(C)(C)CC(C)(C)C)c1
inactive: endpoint: mean survival time, dose: 100.0 mg/kg/injection, schedule: Q01DX001 (ip), vehicle: saline with Tween-80 98 % of control | endpoint: mean survival time, dose: 200.0 mg/kg/injection, schedule: Q01DX001 (ip), vehicle: saline with Tween-80 98 % of control | endpoint: mean survival time, dose: 400.0 mg/kg/injection, schedule: Q01DX001 (ip), vehicle: saline with Tween-80 100 % of control

CCOC(=O)CNC(=O)Nc1ccccc1OCC
inactive: [1] 89 % of control | [2] 89 % of control | [4] 93 % of control

CC(=O)OC1CCC2(C)C(=CC=C3C2CCC2(C)C3CCC2C(C)/C=C/C(C)C(C)C)C1 (stereo not given)
inactive: endpoint: mean survival time, dose: 50.0 mg/kg/injection, schedule: Q01DX009 (ip), vehicle: Klucel (hydroxypropylcellulose) (HPC) 89 % of control | [7] 101 % of control | [8] 93 % of control
